According to patent US6844343B1, “N-substituted 4-aminopteridines, synthesis and use thereof as pharmaceutical agent” (Vasopharm Biotech GmbH, priority 1999, dated 2005):

Key:
[1] = test system: intact rat alveolar macrophages; settings: cited from earlier work
NOS-III = NOS-III (Homo sapiens, UniProt P29474); assay: Inhibition of human NOS isoforms: NOS-III; format: biochemical
Experimental: (§1) After mixing of the components on ice, the reaction mixture was immediately incubated in a water bath at 37° C. for 15 minutes. […] After this incubation time, the reaction was stopped by addition of 900 μl of ice-cold “stop buffer” (20 mM sodium acetate, 2 mM EDTA, pH 5.5), and the mixture (total volume now 1.0 ml) was placed on ice. To remove the unreacted ^3H-L-arginine, the mixture was loaded onto an ion exchange column with 0.8 ml of Dowex AG 50 WX-8 (100-200 mesh) which has previously been washed and equilibrated with 2 ml of stop buffer. After loading of the sample, the column was eluted twice with 1 ml of water each time. The flow-through of the sample and the eluate were collected in scintillation vessels and […] (total volume 3 ml). 9 ml of scintillator solution were added to the 3 ml of aqueous measurement solution, and the homogeneous mixture was measured in a Tricarb 2500 TR (Packard) liquid scintillation counter for 1 minute for each sample. […] In addition, the relative selectivities of the antipterin inhibitors for the three known human NOS isoforms were measured. So doing, the IC50 values for NOS-II/NOS-I and NOS-III/NOS-I were formed (compare Table 2).

[2] = test system: purified NO synthase from pig cerebellum or from pig liver; assay: Activity assay of purified NOS (3H-L-arginine to 3H-L-citrulline conversion); format: biochemical; settings: incubated in the presence of 5 kU/ml catalase for 45 minutes
[3] = test system: purified NO synthase from pig cerebellum or from pig liver; assay: as above; format: biochemical; settings: substance 100 μM, in the presence of 2 μM tetrahydrobiopterin, 15 min at 37° C.
Experimental: The inhibition of the activity of purified nitric oxide synthase (NOS) by compounds of the general formula I can be determined as follows.
(§2) In this activity assay the L-citrulline which is a coproduct of the formation of NO by purified NOS is quantitatively measured. ^3H-radiolabeled L-arginine is employed as substrate of the enzyme reaction and is converted into ^3H-L-citrulline and NO. After completion of the enzyme incubation, generated L-citrulline is removed from unused L-arginine by ion exchange chromatography from the reaction mixture; the ^3H activity measured by liquid scintillation then is corresponds to the amount of L-citrulline, which is a direct measure of the activity of NOS.
The basic medium for carrying out the enzyme reaction is TE buffer (triethanolamine, EDTA, pH 7.0).
The final volume of each incubation is 100 μl. The reaction mixture is obtained by mixing the following 6 components on ice: • 1. “REA-Mix” (pH 7.0) which contains triethanolamine, calcium chloride, magnesium chloride, EDTA, L-arginine, calmodulin and flavin adenine dinucleotide (FAD); • 2. freshly prepared stock solution of β-nicotinamide adenine dinucleotide phosphate, reduced form (NADPH); • 3. (6R)-5,6,7,8-tetrahydro-L-biopterin dihydro-chloride stock solution (BH4) or —for experiments without BH4-instead TE buffer; • 4. purified NO synthase from pig cerebellum or from pig liver; • 5.
(§3) After mixing of the components on ice, the reaction mixture was immediately incubated in a water bath at 37° C. for 15 minutes. […] After this incubation time, the reaction was stopped by addition of 900 μl of ice-cold “stop buffer” (20 mM sodium acetate, 2 mM EDTA, pH 5.5), and the mixture (total volume now 1.0 ml) was placed on ice. To remove the unreacted ^3H-L-arginine, the mixture was loaded onto an ion exchange column with 0.8 ml of Dowex AG 50 WX-8 (100-200 mesh) which has previously been washed and equilibrated with 2 ml of stop buffer. After loading of the sample, the column was eluted twice with 1 ml of water each time. The flow-through of the sample and the eluate were collected in scintillation vessels and […] (total volume 3 ml). 9 ml of scintillator solution were added to the 3 ml of aqueous measurement solution, and the homogeneous mixture was measured in a Tricarb 2500 TR (Packard) liquid scintillation counter for 1 minute for each sample. […] Each substance was tested for an antagonistic effect in a concentration of 100 μM in the presence of 2 μM tetrahydrobiopterin, and for an agonistic effect on NOS in the absence of tetrahydrobiopterin.
All incubations were carried out on triplicates. Each experiment was repeated three times with different enzyme preparations.

NOS-I = NOS-I (Homo sapiens, UniProt P29475); assay: Inhibition of human NOS isoforms: NOS-I; format: biochemical
Experimental: as §2, §3
In addition, the relative selectivities of the antipterin inhibitors for the three known human NOS isoforms were measured. So doing, the IC50 values for NOS-II/NOS-I and NOS-III/NOS-I were formed (compare Table 2).

NOS-II = NOS-II (Homo sapiens, UniProt P35228); assay: Inhibition of human NOS isoforms: NOS-II; format: biochemical
Experimental: as §1

Row | Molecule | inhibition of NO production [1] | Activity (% of control) (NOS-III; human NOS-III) | IC50 (NOS-III; human NOS-III) [µM] | Ratio NOS-III/I (NOS-III; ratio of IC50 values NOS-III/NOS-I) | IC50 [2] [µM] | Remaining activity (% of Vmax) [3] | Activity (% of control) (NOS-I) | IC50 (NOS-I) [µM] | Activity (% of control) (NOS-II; human NOS-II) | IC50 (NOS-II; human NOS-II, enzyme inhibition not complete up to 300 μM, IC50 values extrapolated) [µM] | Ratio NOS-II/I (NOS-II; ratio of IC50 values NOS-II/NOS-I)
1 | Nc1nc2ncc(C(=O)O)nc2c(=O)[nH]1 [Pterin-6-carboxylic acid] | no effect |  |  |  |  |  |  |  |  |  | 
2 | 2-amino-4-(diethylamino)-6-(4-chlorophenyl)-5,6,7,8-tetrahydropteridine dihydrochloride hemi-hydrate [Example 48] |  | 27 ± 1 % of control | 45.4 | 1.1 | 8 | 0 % of Vmax | 2 ± 0 % of control | 41.5 | 74 ± 4 % of control | 300 | 7.2
3 | C[C@H](O)C(=O)C1=Nc2c(nc(N)[nH]c2=O)NC1 [sepiapterin] | inhibition of NO production |  |  |  |  |  |  |  |  |  | 
